26 compounds from ChEMBL document CHEMBL1127540, “Three-dimensional pharmacophores from binding data” (J Med Chem, 1994) can be followed below.

SMILES strings stand for the structures. Starred links: 1 amine or outer side, 2 acyl side, 3 side chain; linkers in the order of their positions; H or OH if unused. Non-standard residues stand in square brackets, D forms with d. Residues, ends and D or L forms follow the SMILES beside them. *: point of attachment. Hexanoyl(5S-NH,4S-OH,6-Ph) = O=C(CC[C@H](O)[C@H](Cc1ccccc1)N[*:1])[*:2]; X3 = O=C([C@@H]1CCC[C@@H]1[C@H](O)[C@H](Cc1ccccc1)N[*:1])[*:2]; PheΨ(PO2HCH2)Gly = O=C(CCP(=O)(O)[C@H](Cc1ccccc1)N[*:1])[*:2]; Ahppa(3S,4S) = O=C(C[C@H](O)[C@H](Cc1ccccc1)N[*:1])[*:2]; X2 = CC(C)C[C@H](N[*:1])[C@@H](O)CN1CCC[C@@H]1C(=O)[*:2]; X10 = O=C([C@H]1CCCN1C[C@H](Cc1ccc(O)cc1)N[*:1])[*:2]; X1 = O=C(C[C@H](O)[C@H](Cc1ccc(O)cc1)N[*:1])[*:2]; X4 = O=C([C@H](Cc1ccccc1)N[*:1])C(F)(F)C(=O)[*:2]; X8 = O=C([C@H]1CCCN1C[C@H](Cc1ccccc1)N[*:1])[*:2]; X9 = O=C(CP(=O)(O)[C@H](Cc1ccccc1)N[*:1])[*:2]; X7 = NC(=O)C[C@H](N[*:1])[C@@H](O)CC(=O)[*:2]; Cbz = O=C(OCc1ccccc1)*; Boc = CC(C)(C)OC(=O)*

This test concerns the target Human immunodeficiency virus type 1 protease (Human immunodeficiency virus 1, UniProt Q72874). The experiment in a line: Binding affinity to HIV-1 protease.
Usually Ki stands for a dissociation constant, usually derived from enzyme kinetics or from competition with a known ligand. Low values mean a stronger hold on the target, high ones a looser hold on the target. `CC(C)(C)OC(=O)N[C@@H](Cc1ccccc1)[C@H](O)C(=O)N[C@@H](CCC(=O)O)C(=O)N[C@@H](Cc1ccccc1)C(=O)O` had a Ki of 3310 nM.

`COC(=O)[C@@H](NC(=O)[C@@H](NC(=O)CC[C@H](O)[C@H](Cc1ccccc1)NC(=O)[C@H](C)NC(=O)[C@H](C)N)C(C)C)C(C)C` (H-AA[Hexanoyl(5S-NH,4S-OH,6-Ph)]VV-OMe): the affinity corresponds to a Ki of 18.2 nM.

The compound `CC(C)[C@H](NC(=O)OCc1ccccc1)C(=O)N[C@@H](Cc1ccccc1)C(=O)C(F)(F)CCc1ccccc1` (stereo in doubt; 12) showed a Ki of 2.69 nM.

In turn, `CC(C)[C@H](NC(=O)OCc1ccccc1)C(=O)N[C@@H](Cc1ccccc1)[C@H](O)[C@H](O)[C@H](Cc1ccccc1)NC(=O)[C@@H](NC(=O)OCc1ccccc1)C(C)C` gave an inhibition constant (Ki) of 0.219 nM.

On to `CC(C)[C@H](NC(=O)OCc1ccccc1)C(=O)N[C@@H](Cc1ccccc1)[C@@H](O)[C@@H](CC(=O)[C@H](NC(=O)OCc1ccccc1)C(C)C)Cc1ccccc1`, for which the inhibition constant (Ki) is 3.72 nM.

Compound `CC(C)[C@H](NC(=O)CNC(=O)OCc1ccccc1)C(=O)N[C@@H](Cc1ccccc1)C(=O)C(F)(F)CCc1ccccc1` showed an inhibitory constant (Ki) of 1 nM.

In turn, `COC(=O)[C@@H](NC(=O)[C@@H](NC(=O)CCP(=O)(O)[C@H](Cc1ccccc1)NC(=O)[C@H](C)NC(=O)[C@H](C)NC(=O)[C@@H](N)CO)C(C)C)C(C)C` (H-SAA[PheΨ(PO2HCH2)Gly]VV-OMe) had a Ki of 4370 nM.

In turn, `COC(=O)[C@@H](NC(=O)[C@@H](NC(=O)C(F)(F)C(=O)[C@H](Cc1ccccc1)NC(=O)[C@H](C)NC(=O)[C@H](C)NC(=O)[C@H](CO)NC(=O)OC(C)(C)C)C(C)C)C(C)C` (Boc-SAA[X4]VV-OMe) gave an inhibition constant Ki of 158 nM.

As for `CC[C@H](C)[C@H](NC(=O)[C@H]1CCCN1C[C@H](O)[C@H](CC(C)C)NC(=O)[C@H](CC(N)=O)NC(=O)[C@H](CC(C)C)NC(=O)[C@H](CO)NC(C)=O)C(=O)N[C@H](C(=O)OC)C(C)C` (Ac-SLN[X2]IV-OMe), the Ki was 11 nM.

Compound `CC(=O)N[C@@H](CO)C(=O)N[C@@H](CCC(N)=O)C(=O)N[C@@H](CC(N)=O)C(=O)N[C@@H](Cc1ccccc1)CN1CCC[C@@H]1C(=O)N[C@H](C(=O)N[C@H](C(N)=O)C(C)C)C(C)C` (stereo in doubt; 70) showed an inhibitory constant (Ki) of 12900 nM.

`COC(=O)[C@@H](NC(=O)[C@@H](NC(=O)CC[C@H](O)[C@H](Cc1ccccc1)NC(=O)[C@H](Cc1ccccc1)NC(=O)[C@H](C)NC(=O)[C@H](C)NC(=O)OCc1ccccc1)C(C)C)C(C)C` (Cbz-AAF[Hexanoyl(5S-NH,4S-OH,6-Ph)]VV-OMe): the inhibitory constant (Ki) is 47.9 nM.

`COC(=O)[C@@H](NC(=O)[C@@H](NC(=O)CP(=O)(O)[C@H](Cc1ccccc1)NC(=O)[C@H](C)NC(=O)[C@H](C)NC(=O)[C@@H](N)CO)C(C)C)C(C)C` (H-SAA[X9]VV-OMe): the inhibition constant (Ki) was 4470 nM.

The compound `CC[C@H](C)[C@H](NC(=O)[C@H](Cc1ccccc1)NC(=O)C[C@H](O)[C@H](Cc1ccccc1)NC(=O)OC(C)(C)C)C(=O)N[C@@H](Cc1ccccc1)C(=O)OC` gave an inhibition constant Ki of 0.603 nM.

`COC(=O)[C@@H](NC(=O)[C@@H](NC(=O)C[C@H](O)[C@H](Cc1ccccc1)NC(=O)[C@H](C)NC(=O)[C@H](C)NC(=O)[C@H](CO)NC(=O)OC(C)(C)C)C(C)C)C(C)C` (Boc-SAA[Ahppa(3S,4S)]VV-OMe) had an inhibition constant (Ki) of 1200 nM.

As for `CC(=O)N[C@@H](CO)C(=O)N[C@@H](C)C(=O)N[C@@H](C)C(=O)N[C@@H](Cc1ccccc1)CN1CCC[C@@H]1C(=O)N[C@H](C(=O)N[C@H](C(N)=O)C(C)C)C(C)C` (Ac-SAA[X8]VV-NH2), the Ki was 38000 nM.

Turning to `CC[C@H](C)[C@H](NC(=O)C[C@H](O)[C@H](CC(N)=O)NC(=O)[C@H](CCC(N)=O)NC(=O)[C@H](CO)NC(=O)[C@@H](N)C(C)C)C(=O)N[C@H](C(=O)O)C(C)C` (H-VSQ[X7]IV-OH), the affinity corresponds to a Ki of 3720 nM.

For the compound `CC[C@H](C)[C@H](NC(=O)[C@@H](C[C@H](O)[C@H](CC(C)C)NC(=O)[C@H](Cc1c[nH]cn1)NC(=O)[C@H](Cc1ccccc1)NC(=O)[C@H]1CCCN1C(=O)[C@H](Cc1c[nH]cn1)NC(=O)OC(C)(C)C)C(C)C)C(=O)N[C@@H](Cc1c[nH]cn1)C(=O)O`, the affinity corresponds to a Ki of 8.71 nM.

`CC[C@H](C)[C@H](NC(=O)[C@H]1CCCN1C[C@H](O)[C@H](CC(C)C)NC(=O)[C@H](CC(N)=O)NC(=O)[C@H](CC(C)C)NC(C)=O)C(=O)N[C@H](C(=O)OC)C(C)C` (Ac-LN[X2]IV-OMe): the inhibitory constant (Ki) was 20.9 nM.

`CC(=O)N[C@@H](CO)C(=O)N[C@@H](CCC(N)=O)C(=O)N[C@@H](CC(N)=O)C(=O)N[C@@H](Cc1ccc(O)cc1)CN1CCC[C@@H]1C(=O)N[C@H](C(=O)N[C@H](C(N)=O)C(C)C)C(C)C` (Ac-SQN[X10]VV-NH2) gave a Ki of 12900 nM.

`CC(C)[C@H](NC(=O)OCc1ccccc1)C(=O)N[C@@H](Cc1ccccc1)[C@@H](O)[C@H](O)[C@H](Cc1ccccc1)NC(=O)OCc1ccccc1` had a Ki of 0.219 nM.

Consider `COC(=O)[C@@H](NC(=O)[C@@H](NC(=O)[C@@H]1CCC[C@@H]1[C@H](O)[C@H](Cc1ccccc1)NC(=O)[C@H](C)NC(=O)[C@H](C)NC(=O)[C@@H](N)CO)C(C)C)C(C)C` (H-SAA[X3]VV-OMe), for which the affinity corresponds to a Ki of 501 nM.

With `CCC(C)CNC(=O)[C@H](C(C)C)[C@@H](O)[C@H](O)[C@H](CC(C)C)NC(=O)OCc1ccccc1` (stereo partly specified), the Ki is 363 nM.

Compound `COC(=O)[C@@H](NC(=O)[C@@H](NC(=O)C[C@H](O)[C@H](Cc1ccc(O)cc1)NC(=O)[C@H](C)NC(=O)[C@H](C)NC(=O)[C@H](CO)NC(=O)OC(C)(C)C)C(C)C)C(C)C` (Boc-SAA[X1]VV-OMe) gave a Ki of 182 nM.

`COC(=O)[C@@H](NC(=O)[C@@H](NC(=O)C[C@H](O)[C@H](Cc1ccccc1)NC(=O)[C@H](C)NC(=O)[C@H](C)NC(=O)[C@@H](N)CO)C(C)C)C(C)C` (H-SAA[Ahppa(3S,4S)]VV-OMe) gave a Ki of 813 nM.

`CC(C)(C)OC(=O)N[C@@H](Cc1ccccc1)[C@H](O)[C@@H](O)[C@H](Cc1ccccc1)NC(=O)OC(C)(C)C`: the affinity corresponds to a Ki of 282 nM.

`CC(=O)N[C@H](C(=O)N[C@H](C(=O)C[C@@H](Cc1ccccc1)[C@H](O)[C@H](Cc1ccccc1)NC(=O)[C@@H](NC(=O)[C@@H](NC(C)=O)C(C)C)C(C)C)C(C)C)C(C)C` gave a Ki of 10 nM.
